Data on 1 compound can be found in patent publication US20260284048A1, “INHIBITOR OF MEGAKARYOCYTE DIFFERENTIATION AND MATURATION” (OTSUKA PHARMACEUTICAL CO., LTD., priority 2023, published 2026).

Common to all, as to format: cell-based
One test deals with SLFN12 protein. As to the kind of experiment: Increase of SLFN12 protein (Western blot analysis). The following applies: 1 μmol/L, 16 hours, FIG. 2. Here is the method: In order to examine the effect of Compound 1 on the protein level of SLFN12, Western blot analysis was performed. PFSK-1, HeLa, or U-87 MG cell lines were treated with Compound 1 (1 μmol/L) for 16 hours, and SLFN12 protein in each test sample was detected.

For the next test, the system named is PDE3A and SLFN12. As to the kind of experiment: Complex formation of PDE3A and SLFN12 (immunoprecipitation using anti-PDE3A antibody). Conditions: PFSK-1 and HeLa cell lines, 1 μmol/L, 16 hours, FIG. 1. Here is the method:
In order to examine whether Compound 1 forms a complex between PDE3A and SLFN12, a binding confirmation experiment using immunoprecipitation was performed. PFSK-1 and HeLa which are cell lines expressing PDE3A and SLFN12 were treated with Compound 1 (1 μmol/L) for 16 hours, and then immunoprecipitated using anti-PDE3A antibody.

In test [1] the test system is Bone marrow-derived CD34-positive cells (CD41-positive megakaryocytes). The test can be described thus: Inhibition of differentiation from CD34-positive cells toward megakaryocytes (HemaTox Megakaryocyte Kit, flow cytometry). Conditions: 240 h, cultured 10 days, three donors. How it is done: It was studied whether Compound 1 inhibits the differentiation from CD34-positive cells toward megakaryocytes. Bone marrow-derived CD34-positive cells were cultured for 10 days in the presence and absence of Compound 1 in megakaryocyte differentiation medium (HemaTox™ Megakaryocyte Kit, STEMCELL™ Technologies) according to the kit's instruction. The number of the CD41-positive megakaryocytes was counted by flow cytometry and the cell viability relative to the untreated cell group was calculated. The test was conducted three times using CD34-positive cells derived from different donors, and the cell viability was determined with the control as 100%.

The test system of test [2] is Bone marrow-derived CD34-positive cells (CD71-positive and CD235-positive erythroid cells). As to the kind of experiment: Differentiation from CD34-positive cells toward erythroblasts (HemaTox Erythroid Kit, flow cytometry). The following applies: concentrations of 100 nmol/L or lower, cultured 7 days, two donors, FIG. 4. How it is done: It was studied whether Compound 1 inhibits the differentiation from CD34-positive cells toward erythroblasts. Bone marrow-derived CD34-positive cells were cultured for 7 days in erythroid differentiation medium (HemaTox™ Erythroid Kit, STEMCELL™ Technologies) according to the kit's instruction. The number of the CD71-positive and CD235-positive erythroid cells were counted by flow cytometry and the cell viability relative to the untreated cell group was calculated. The test was conducted twice using CD34-positive cells derived from different donors, and the cell viability was determined with the control as 100%.
Background: In flow cytometry, cells or beads pass a laser one at a time.

The test system of test [3] is Bone marrow-derived CD34-positive cells (CD13-positive and CD15-positive myeloid cells). As to the kind of experiment: Differentiation from CD34-positive cells toward myeloid cells (HemaTox Myeloid Kit, flow cytometry). The following applies: cultured 7 days, two donors, FIG. 5. How it is done: It was studied whether Compound 1 inhibits the differentiation from CD34-positive cells toward myeloid cells. Bone marrow-derived CD34-positive cells were cultured for 7 days in myeloid differentiation medium (HemaTox™ Myeloid Kit, STEMCELL™ Technologies) according to the kit's instruction. The number of the CD13-positive and CD15-positive myeloid cells was counted by flow cytometry and the cell viability relative to the untreated cell group was calculated. The test was conducted twice using CD34-positive cells derived from different donors, and the cell viability was determined with the control as 100%.

Structures are written as SMILES.

Regarding `C[C@@H]1CC(=O)NN=C1c1ccc(OCC(C)(C)O)c(F)c1F` [Compound 1, (R)-6-(2,3-difluoro-4-(2-hydroxy-2-methylpropoxy)phenyl)-5-methyl-4,5-dihydropyridazin-3(2H)-one], the “SLFN12 protein level compared to untreated” value is “increased SLFN12 protein levels were observed” in the test on SLFN12 protein (PFSK-1 or HeLa (highly expresses PDE3A)) and “no significant, Compound 1-dependent increase in SLFN12 protein level was observed” in the test on SLFN12 protein (U-87 MG (hardly expresses PDE3A)). In addition, the “coprecipitation of SLFN12 with PDE3A (complex formation)” value in the test on PDE3A and SLFN12 was “coprecipitation with SLFN12 was confirmed”. Moreover, the minimal effective concentration in test [1] (FIG. 3, read-out: concentration that significantly decreased the number of CD41-positive megakaryocytes) was no less than 0.003 µM. For the same compound, in test [1] (control as 100%, 95% confidence interval 10.3-23.7 nmol/L, read-out: 50% inhibitory concentration (IC50), number of CD41-positive megakaryocytes), the IC50 was 17 nM. Also, the “effect on differentiation from hematopoietic stem cells toward erythroid cells” value in test [2] is on record as “did not affect”. Also, the “effect on differentiation from hematopoietic stem cells toward myeloid cells” value was “inhibited” in test [3] (30 nmol/L) and “no significant difference” in test [3] (100 nmol/L). Also, the “concentration dependence of the effect on differentiation toward myeloid cells” value in test [3] is “no concentration-dependent inhibitory effect”.
